Data as given in article PMC7888557 (International journal of biological macromolecules, 2017).

Biological target: T1, S-adenosyl-L-homocysteine hydrolase from T. maritima (TmSAHase; iTmSAHase as purified, htTmSAHase after heat treatment) (Thermotoga maritima, UniProt O51933)
T1 sequence (O51933 1-404): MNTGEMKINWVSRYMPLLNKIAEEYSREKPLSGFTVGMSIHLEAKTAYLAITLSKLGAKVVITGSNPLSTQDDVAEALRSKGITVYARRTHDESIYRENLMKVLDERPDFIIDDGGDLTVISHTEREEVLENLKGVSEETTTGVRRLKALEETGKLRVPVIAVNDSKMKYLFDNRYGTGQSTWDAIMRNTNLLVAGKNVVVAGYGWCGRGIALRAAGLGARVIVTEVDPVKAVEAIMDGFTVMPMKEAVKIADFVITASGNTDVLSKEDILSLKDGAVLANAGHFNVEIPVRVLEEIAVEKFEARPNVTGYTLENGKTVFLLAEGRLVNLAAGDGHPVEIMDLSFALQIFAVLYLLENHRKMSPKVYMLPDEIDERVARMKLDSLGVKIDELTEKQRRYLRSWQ
Test: isothermal titration calorimetry
Format: binding

Row | Kd (htTmSAHase/AMP) [µM] | Kd (iTmSAHase/AMP) [µM] | SMILES | Kd (htTmSAHase/Ado) [µM] | Kd (iTmSAHase/Ado) [µM]
1 | 25 ± 2 | 30 ± 3 | Nc1ncnc2c1ncn2[C@@H]1O[C@H](COP(=O)(O)O)[C@@H](O)[C@H]1O [AMP, adenosine 5′-monophosphate] |  | 
2 |  |  | Nc1ncnc2c1ncn2[C@@H]1O[C@H](CO)[C@@H](O)[C@H]1O [Ado, adenosine] | 8.8 ± 1.2 | 19 ± 1.5
